{
  "source": "paper PMC8453745",
  "about": "“Human Mass Balance and Metabolite Profiling of [^14C]‐Pamiparib, a Poly (ADP‐Ribose) Polymerase Inhibitor, in Patients With Advanced Cancer” (Clinical Pharmacology in Drug Development, 2021)",
  "key": {"[1]": {"experiment": "metabolite profiling in pooled urine (radioprofiling, LC‐MS)", "format": "in vivo, human", "details": "pooled urine", "protocol": "Total radioactivity concentrations of [^14C]‐pamiparib in whole blood, plasma, urine, and feces were determined by liquid scintillation counting (LSC). Radioactivity in each sample was measured for 5 minutes using a Packard Tri‐Carb liquid scintillation counter model 2100TR, 2900TR, or 3100TR (Canberra Packard, Pangbourne, Berks, Australia) with the facilities for computing quench‐corrected disintegrations per minute. Metabolite identification in plasma, urine, and feces was conducted by LC‐MS. Quantitation of the metabolites present in plasma, urine, and feces was based on the profiles of radioactivity. The limit of quantitation for radioactivity in plasma, urine, and feces was set at 1% of each chromatographic analysis (run) and 10 counts per minute (cpm) peak height; therefore, radioactive peaks that were <1% of the total run or <10 cpm peak height were reported as not detected. In addition, pamiparib and standards were reported, regardless of the percentage of run or peak height.\nEach aliquot of urine (about 1 mL, weighed) was added directly to liquid scintillant prior to LSC. For metabolite profiling, urine samples collected 0‐4, 4‐8, 8‐12, 12‐24, 24‐48, 48‐72, and 72‐96 hours postdose were pooled by individual patient to generate 0‐ to 96‐hour pooled samples including 0.2% of each sample by weight. The radioactivity in each pooled sample was determined by LSC. The total amount of urine collected was factored into the recovery calculation. […] Pooled urine samples were analyzed by LC‐MS, with eluent fractions collected at 10‐second intervals into 96‐well plates containing solid scintillant. Radioactivity in each well was determined using TopCount analysis, and radiochemical profiles were generated based on radioactivity counts.\nMetabolic profiling was performed on plasma, urine, and feces samples using LC‐MS. Shimadzu/Nexera LC‐30AD pumps and Shimadzu/Prominence DGU‐20A5R degasser were used with Shimadzu/Prominence controller CBM‐20A. The high‐pressure liquid chromatograph (HPLC) was equipped with an autoinjector (Shimadzu/Nexera SIL‐30ACMP) set at 10°C and a fraction collector (Leap Technologies PAL HTC‐xt) set at 15°C. Thermo Fisher Scientific Q Exactive was the mass spectrometer system."}, "[2]": {"experiment": "plasma pamiparib pharmacokinetics in patients (LC‐MS/MS)", "format": "in vivo, human", "details": "for Cmax / half-life: plasma, po", "source_text": "Part 1 of the study included a screening phase of up to 28 days prior to drug administration to assess eligibility. Patients were admitted to the clinical research unit (CRU) at Royal Liverpool University Hospital (Liverpool, UK)/Clatterbridge Cancer Centre NHS Foundation Trust (Bebington, Wirral, UK) on day −1 and received a single dose of 60‐mg/100 μCi [^14C]‐pamiparib orally the morning of day 1. Patients remained in the CRU until completion of assessments on day 7, when discharge criteria of ≈90% of the radioactive dose being recovered or <1% of the radioactive dose being recovered in urine and feces for 2 consecutive 24‐hour collection intervals were met. If discharge criteria were not met by day 7, patients collected 24‐hour excreta samples up to day 14 on an outpatient basis. Part 2 of the study, evaluating the safety/tolerability and antitumor activity of 60 mg twice‐daily pamiparib in patients with advanced and/or metastatic solid tumors, is ongoing and is not included in this report.\nPatients fasted overnight and 2 hours after oral administration of a single 60‐mg dose containing ≈100 μCi (3.7‐3.9 MBq) of [^14C]‐pamiparib with ≈240 mL of room‐temperature water or juice (orange or grape). The residual radioactivity present in each vial postdose was corrected from the dose. The radioactive dose of 100 μCi of [^14C]‐pamiparib provided minimum risk to patients according to the dosimetry calculation from a quantitative whole‐body autoradiography study in male and female Long Evans rats; the dose also provided sufficient signal for total radioactivity counting and quantitative radioprofiling in blood, plasma, and excreta (data on file). Patients were not permitted to lie in the supine position for 2 hours after drug administration, except if required because of an adverse event (AE) and/or study procedure.\nTotal radioactivity was analyzed at Covance Laboratories (Harrogate, North Yorkshire, UK), and metabolite profiling was conducted at Covance Laboratories (Madison, Wisconsin). Determination of pamiparib concentrations in plasma and total radioactivity in plasma and whole blood was performed predose and 0.25, 0.5, 1, 1.5, 2, 2.5, 3, 6, 12, 24, 48, 72, 96, 120, and 144 hours postdose. Pamiparib concentrations in plasma and urine were determined at Covance Laboratories (Salt Lake City, Utah) with validated liquid chromatography‐tandem mass spectrometry (LC‐MS/MS) methods.\nAn aliquot of human plasma (25 μL) containing dipotassium ethylenediaminetetraacetic acid as anticoagulant or urine (25 μL) was added with the internal standard (20.0 μL of 400 ng/mL BGB‐326) in water:ACN (50:50 v/v) followed by the addition of water:ACN (50:50 v/v, 20.0 μL). The plasma samples were centrifugated and vortexed followed by the addition of 200 μL of 5% NH4OH and 100 μL of water. After centrifugation, the supernatant (50 μL) was loaded to Biotage Isolute supported liquid extraction plate (Biotage, Holliston, Massachusetts) and eluted with methyl tert‐butyl ether (700 μL). The eluted samples were dried down at 45°C in TurboVap for 30 minutes and reconstituted in 400 μL of water:MeOH (80:20 v/v), followed by LC‐MS/MS analysis. The urine samples were centrifuged and vortexed followed by the addition of 200 μL of ACN. After centrifugation, 100 μL of the samples was transferred to a plate followed by the addition of 300 μL of water. The samples were centrifugated again before LC‐MS/MS analysis. The LC‐MS/MS instrumentation was the same for plasma and urine analysis including a LEAP autosampler (LEAP Technologies, Chapel Hill, North Carolina), a Shimadzu SCL‐10A controller with LC‐10AD pump (Shimadzu, Columbia, Maryland), and a Sciex API 5000 mass spectrometer (Sciex, Framingham, Massachusetts) equipped with a XBridge Phenyl column (2.1 × 50 mm, 5 μm; Waters, Pleasanton, California). The mobile phase A is 10 mM ammonium formate in water, and mobile phase B is MeOH:ACN (50:50 v/v). […]"}, "PARP activity": {"tested_on": "PARP activity", "design": "method as in PMID 33264017", "details": "read-out: inhibition of PARP activity in cellular PARylation assay, IC50; cited from earlier work"}, "[3]": {"details": "single oral 60 mg/100 μCi, n = 4"}},
  "note": "Where “and” joins values, the source holds several entries; their conditions need not be identical. Identical values can stand only once. Like-named read-outs stand apart in the source and are kept apart here.",
  "data": [
    {"smiles": "C[C@]12CCCN1CC1=NNC(=O)c3cc(F)cc4[nH]c2c1c34", "note": "[Pamiparib]", "values": [
      {"measurement": "dose quantified in urine", "setting": "[1]", "value": "52.5 % of the dose"},
      {"measurement": "geometric coefficient of variation of parent AUCs among 4 subjects", "setting": "[2]", "value": "< 22", "unit": "%"},
      {"measurement": "AUC", "setting": "[2]; human, oral, 60 mg, as printed in discussion, read-out: AUC0‐t, geometric mean (LC‐MS/MS)", "value": 29.2, "unit": "µg·h/mL"},
      {"measurement": "Cmax", "setting": "[2]; human, 60 mg, single oral 60 mg/100 μCi, n = 4, read-out: Cmax, arithmetic mean (SD)", "value": 2.21, "unit": "µg/mL"},
      {"measurement": "Cmax", "setting": "[2]; human, 60 mg, single oral 60 mg/100 μCi, n = 4, read-out: Cmax, geometric mean (CV%)", "value": 2.19, "unit": "µg/mL"},
      {"measurement": "half-life", "setting": "[2]; human, 60 mg, single oral 60 mg/100 μCi, n = 4, read-out: t1/2, arithmetic mean (SD) (converted)", "value": 29.2, "unit": "h"},
      {"measurement": "half-life", "setting": "[2]; human, 60 mg, single oral 60 mg/100 μCi, n = 4, read-out: t1/2, geometric mean (CV%) (converted)", "value": 28.7, "unit": "h"},
      {"measurement": "Tmax", "setting": "[2]; human, single oral 60 mg/100 μCi, n = 4, read-out: tmax, median (min, max)", "value": 2, "unit": "h"},
      {"measurement": "CL/F, arithmetic mean (SD)", "setting": "[2]; [3]", "value": "2.25 (0.55) L/h"},
      {"measurement": "CL/F, geometric mean (CV%)", "setting": "[2]; [3]", "value": "2.21 (23.2) L/h"},
      {"measurement": "CL/F, geometric mean (CV%)", "setting": "[2]; single oral 60 mg/100 μCi, n = 4, listed as pamiparib", "value": "≈ 2.2 L/h and 2.21 L/h"},
      {"measurement": "IC50", "setting": "PARP activity", "value": 0.2, "unit": "nM"}
    ]}
  ]
}
